Series [1] is described as follows: physchem. The note with it: octanol/water.
The nature of series [2]: physchem. The note with it: aqueous.
For series [3] the following is noted: buffer.

SMILES strings stand for the structures. In brackets after ≈: the same amount, converted by molar mass.

The term logD denotes lipophilicity at a set pH, counting ionised and neutral species. A lower logD goes with a more hydrophilic compound. On to `CC(C)Cn1c(=O)n(C)c(=O)c2c(C(=O)N3CC[C@@H](O)C3)c(Cc3cccc4ncccc34)sc21`, for which the logD in “physchem [1]” is 2.

For `CC(C)Cn1c(=O)n(C)c(=O)c2c(SCCCO)c(Cc3ccccc3C(F)(F)F)sc21`, in the series “physchem [1]”, the logD came out at 4.1.

In turn, `CC(C)Cn1c(=O)n(C)c(=O)c2c(C(=O)N3CC[C@@H](O)C3)c(Cc3c[nH]c4ncccc34)sc21` yielded a logD in “physchem [1]” of 1.7.

For the molecule `Cc1nc(Cl)c(Cl)n1Cc1sc2c(c1C(=O)N1CC[C@@H](O)C1)c(=O)n(C)c(=O)n2CC(C)C`, the logD in the series “physchem [1]” stood at 1.6.

`CC(C)Cn1c(=O)n(C)c(=O)c2c(SC3CCC3)c(Cc3ccccc3C(F)(F)F)sc21`: the pH-dependent lipophilicity (logD) in “physchem [1]” was greater than 3.5.

What is called solubility is how much of the substance goes into solution per volume. Lower therefore signals a poorly soluble substance. Consider `CC(C)Cn1c(=O)n(C)c(=O)c2c(C(=O)N3CC[C@@H](O)C3)c(Cc3ccnc4ccccc34)sc21`, for which the logD in “physchem [1]” came to 1.7. The solubility in the series “physchem [2]” was determined as 520 µg/mL (≈ 1060 µM).

In turn, `CC(C)Cn1c(=O)n(C)c(=O)c2c(C(=O)N3CC[C@@H](O)C3)c(Cc3c[nH]c4ccccc34)sc21` registered a logD in the series “physchem [1]” of 2.4.

The molecule `CC(C)Cn1c(=O)n(C)c(=O)c2c(C(=O)N3CC[C@@H](O)C3)c(Cc3cncc4ccccc34)sc21` registered a logD in the series “physchem [1]” of 1.7.

Consider `CC(C)Cn1c(=O)n(C)c(=O)c2c(C(=O)N3CC[C@@H](O)C3)c(Cc3ccccc3C(F)(F)F)sc21`, for which, in “physchem [1]”, the pH-dependent lipophilicity (logD) was 2.7.

As to `CC(C)Cc1nn(C)c(=O)c2c(SCCCO)n(Cc3cccc4ccccc34)cc12`, the logD in the series “physchem [1]” stood at 4.8. Also, the solubility in the series “physchem [2]” was less than 1 µg/mL.

`CC(C)Cn1c(=O)n(C)c(=O)c2c(C(=O)N3CCCC3)c(Cc3ccccc3C(F)(F)F)sc21` came in with a logD in “physchem [1]” of 3.8.

Consider `CNc1nc2ccccc2n1Cc1sc2c(c1C(=O)N1CC[C@@H](O)C1)c(=O)n(C)c(=O)n2CC(C)C`, for which the logD in the series “physchem [1]” came out at 1.6.

Molecule `CC(C)Cn1c(=O)n(C)c(=O)c2c(C(=O)N3CC(C)(O)C3)c(Cc3ccccc3C(F)(F)F)sc21` showed a logD in “physchem [1]” of 3.2.

`CC(C)Cn1c(=O)n(C)c(=O)c2c(SCCCO)n(Cc3cccc4ccccc34)cc21` gave a solubility in series [3] of 80 µg/mL (≈ 177 µM). This molecule also returned a logD in “physchem [1]” of 4.4.

In “physchem [1]”, `CC(C)Cn1c(=O)n(C)c(=O)c2c(S[C@@H]3CCC[C@H]3O)c(Cc3ccccc3C(F)(F)F)sc21` (racemic) registered a logD of 4.2.

In the series “physchem [1]”, `CC(C)Cn1c(=O)n(C)c(=O)c2c(SCC(O)CO)c(Cc3ccccc3C(F)(F)F)sc21` (racemic) returned a logD greater than 4.5.

`CC(C)Cn1c(=O)n(C)c(=O)c2c(S[C@@H]3CC[C@H](O)C3)c(Cc3ccccc3C(F)(F)F)sc21` (racemic): the logD in the series “physchem [1]” worked out at 4.4.

In the series “physchem [1]”, `CC(C)Cn1c(=O)n(C)c(=O)c2c(S(=O)(=O)N3CC[C@@H](O)C3)c(Cc3ccccc3C(F)(F)F)sc21` (racemic) showed a pH-dependent lipophilicity (logD) of 3.3.

The values above are taken from ChEMBL document CHEMBL1146970, “Potent blockers of the monocarboxylate transporter MCT1: novel immunomodulatory compounds” (Bioorg Med Chem Lett, 2006).
